Entries after “also recorded” stand apart in the source; their conditions may differ. Where two headings read alike, the source gives them in different places. Where no end group is shown, it is not given here.

Broadly, the EC50 is the concentration needed to bring the measured effect to its halfway point. By IC50 is commonly meant the concentration that inhibits the measured activity by half.

For assay [1], the system named is internal maxillary artery. The assay can be described thus: Local intra arterial injection, vascular resistance in the internal maxillary artery (Rma). The assay is classed as in vivo. To be noted: dog; for effect on Rma, in words / rank order potency on a molar basis (reduction of Rma): local intra arterial injection; for vascular effect after pretreatment with adrenoceptor blockers and atropine: phentolamine, propranolol and atropine pretreatment. As to the method: Experiments were performed on twelve adult mixed breed dogs of both sexes weighing between 4 and 9 kg. These experiments were approved by the institutional animal care and ethics committee. The dogs were anaesthetised with pentobarbitone sodium (35 mg kg^-1 i.v.). The trachea was cannulated low in the neck and the animals were artifically ventilated. A catheter connected to a […] blood pressure transducer was placed in a femoral artery for systemic blood pressure monitoring. Another catheter was inserted in a femoral vein for administration of compounds and further doses of anaesthetic as required (0.5-1 ml of a 1-in-5 dilution of pentobarbitone). The left cervical vagus nerve was dissected high in the neck, the vagal sheath was removed and then the sympathetic nerve was separated from the vagal trunk. […] The left zygomatic arch was removed and the […] the sphenopalatine ganglion were exposed by a procedure similar to the one described by […] & Wilson (1973). Bipolar platinum electrodes connected to a Grass S 88 stimulator (Grass Instruments, Quincy, USA) were used for stimulation of the proximal portion of the cervical sympathetic nerve and the cut peripheral end of the parasympathetic nerve. The identification of cervical sympathetic nerve was confirmed by observing dilation of the pupil with its electrical stimulation. The left external carotid artery was […] up to the internal maxillary artery. The main arterial branches located beyond to the superficial temporal artery were ligated as described previously by Lacroix et al. (1988), a procedure which leaves the internal maxillary artery flow supplying only the nasal mucosa. The superficial temporal artery was cannulated for selective injection of agents into the main nasal arterial blood supply. The nasal arterial blood flow was recorded with a transonic flow probe (3SB454) placed around the internal maxillary artery and connected to a T206 ultrasonic blood flowmeter (Transonic System Inc., N.Y., U.S.A.). All parameters were continuously recorded on a Grass polygraph model 7C in all experiments. The animals were allowed a one hour intervention-free period following completion of surgery. Group 1 (n+8): […] The administration of saline alone had no measurable effect. An interval of 5 min was allowed between successive injections. Fifteen minutes after the completion of the ACh, VIP, PH1 and NA injections, parasympathetic nerve stimulations (5 V, 5 ms) were performed at continuous frequencies of 10, 20 and 30 Hz, each for 10 sec. Each stimulation was performed 3 min after the blood flow in the internal maxillary artery returned to base line from the preceding stimulation. Sympathetic nerve stimulation (15 V, 5 ms) was then performed continuously at 10 Hz for 3 min. Parasympathetic nerve stimulations were repeated five minutes, thirty minutes and then one hour after sympathetic nerve stimulation. This entire protocol was repeated after pretreatment with the α-adrenoceptor antagonist phentolamine (0.5 mg kg^-1 h^-1), the β-adrenoceptor antagonist propranolol (1 mg kg^-1) and the parasympathetic muscarinic receptor blocker atropine (0.5 mg kg^-1), all delivered by local intra arterial (i.a.) injection. […] Analysis of results: changes of the nasal arterial blood flow were expressed in terms of vascular resistance in the maxillary artery (Rma), obtained by dividing the driving mean arterial blood pressure in the femoral artery by the peak value of the blood flow volume rate in the maxillary artery. Before each experiment a zero flow in the maxillary artery was obtained by clamping the artery upstream to the transonic probe for 30 sec. The duration of the responses were given in second sand calculated from the end of the electrical stimulation until return to former basal values. All data are presented as mean ± standard error of the […]. Statistical differences were evaluated using one way ANOVA test.

The target of assay [2] is T1, prejunctional (neuropeptide Y Y2) receptor (Rattus norvegicus, UniProt Q9ERC0).
T1 construct: from tissue; host or cells: whole anaesthetised Wistar rat (cardiac vagal nerve endings)
T1 sequence (Q9ERC0 1-381): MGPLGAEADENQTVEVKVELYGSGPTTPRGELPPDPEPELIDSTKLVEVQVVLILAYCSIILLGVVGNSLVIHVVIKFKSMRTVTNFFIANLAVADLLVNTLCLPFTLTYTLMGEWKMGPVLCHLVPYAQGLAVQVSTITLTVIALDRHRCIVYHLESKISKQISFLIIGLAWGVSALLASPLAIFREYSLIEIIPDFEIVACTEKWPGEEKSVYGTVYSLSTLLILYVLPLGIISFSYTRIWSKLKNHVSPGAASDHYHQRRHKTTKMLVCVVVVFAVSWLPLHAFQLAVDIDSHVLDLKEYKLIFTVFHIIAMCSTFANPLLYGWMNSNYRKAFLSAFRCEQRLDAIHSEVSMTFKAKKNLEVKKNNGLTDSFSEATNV
To be noted: Potter et al., 1989; cited from earlier work.

For a further assay, the system named is dog nasal mucosa. The assay can be described thus: Parasympathetic nerve-evoked nasal vasodilatation in anaesthetised dogs. The assay is classed as in vivo. To be noted: for parasympathetic vasodilatation after administration, in words: i.v.
Assay [3] deals with internal maxillary artery. Briefly: Arterial blood pressure and nasal arterial blood flow in anaesthetised dogs after i.v. peptide. To be noted: dog, 8 nmol kg^-1 i.v. Type of assay: in vivo.
Experimental: Experiments were performed on twelve adult mixed breed dogs of both sexes weighing between 4 and 9 kg. These experiments were approved by the institutional animal care and ethics committee. The dogs were anaesthetised with pentobarbitone sodium (35 mg kg^-1 i.v.). The trachea was cannulated low in the neck and the animals were artifically ventilated. A catheter connected to a Statham P23AC blood pressure transducer was placed in a femoral artery for systemic blood pressure monitoring. Another catheter was inserted in a femoral vein for administration of compounds and further doses of anaesthetic as required (0.5-1 ml of a 1-in-5 dilution of pentobarbitone). The left cervical vagus nerve was dissected high in the neck, the vagal sheath was removed and then the sympathetic nerve was separated from the vagal trunk. […] Bipolar platinum electrodes connected to a Grass S 88 stimulator (Grass Instruments, Quincy, USA) were used for stimulation of the proximal portion of the cervical sympathetic nerve and the cut peripheral end of the parasympathetic nerve. The identification of cervical sympathetic nerve was confirmed by observing dilation of the pupil with its electrical stimulation. The left external carotid artery was disserted up to the internal maxillary artery. […] The superficial temporal artery was cannulated for selective injection of agents into the main nasal arterial blood supply. The nasal arterial blood flow was recorded with a transonic flow probe (3SB454) placed around the internal maxillary artery and connected to a T206 ultrasonic blood flowmeter (Transonic System Inc., N.Y., U.S.A.). All parameters were continuously recorded on a Grass polygraph model 7C in all experiments. The animals were allowed a one hour intervention-free period following completion of surgery.
Group 1 (n+8): Solutions of ACh (5.5×10^-11 to 5.5×10^-8 mol). VIP (3×10^-11 to 3×10^-9 mol), PH1 (3.3×10^-11 to 1.6×10^-8 mol) and NA (6×10^-11 mol to 6×10^-8 mol) in 1 ml of saline, were infused into the superficial temporal artery over a period of 15 sec. […]
Assay [4] addresses T1, prejunctional (neuropeptide Y Y2) receptor. Briefly: Inhibition of cardiac vagal action in anaesthetised rats (prejunctional activity). The assay is classed as in vivo. To be noted: for EC50 / inhibition of cardiac vagal action (prejunctional effect), in words: anaesthetised rats, i.v.; for EC50: log of the dose which evokes 50% of the maximum response, mean ± SEM, five rats. As to the method:
Experiments were carried out on adult rats (Wistar) of both sexes (250-350 g), anaesthetised with sodium pentobarbitone (Nembutal, Boehringer-Ingleheim; 60 mg/kg, i.p.). […] The femoral vein was cannulated for administration of peptides and further doses of anaesthetic. The left femoral artery was cannulated to record arterial pressure. Both vagus nerves were cut. […] The electrocardiogram was measured using needle electrodes and monitored on one channel of an osciloscope. Pulse interval (the period between successive beats of the heart) was recorded beat-by-beat by triggering from ECG. Pulse interval and arterial pressure were recorded on the pen recorder.
Dose-response curves were constructed from group data for all rats. Because of the long time-course of action of the peptides tested, not all peptides were given to each rat.

Assay [5] concerns the target T2, neuropeptide Y Y2 receptor (Homo sapiens, UniProt P49146).
T2 construct: endogenous in cells; host or cells: SMS-KAN human neuroblastoma cells (whole cells; gift of Dr Thue Schwartz)
T2 sequence (P49146 1-381): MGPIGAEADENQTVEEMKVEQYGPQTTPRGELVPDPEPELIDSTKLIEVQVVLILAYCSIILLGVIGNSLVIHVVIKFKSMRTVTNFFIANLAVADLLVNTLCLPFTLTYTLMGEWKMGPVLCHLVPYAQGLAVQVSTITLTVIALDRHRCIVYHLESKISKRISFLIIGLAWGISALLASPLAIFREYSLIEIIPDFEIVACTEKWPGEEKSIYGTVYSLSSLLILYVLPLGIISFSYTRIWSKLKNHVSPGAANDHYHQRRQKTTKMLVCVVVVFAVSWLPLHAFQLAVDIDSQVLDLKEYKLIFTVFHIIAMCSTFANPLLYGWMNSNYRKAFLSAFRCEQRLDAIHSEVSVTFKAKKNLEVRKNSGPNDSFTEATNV
The assay can be described thus: Competition with radiolabelled peptide YY for binding to SMS-KAN cells.
Text: (§1) All media and materials for tissue culture were obtained from Cytosystems (Castle Hill, NSW, Australia). Cells were harvested by treatment with 0.2% EDTA in phosphate buffered saline and immediately used in the binding assay described.

Assay [6] has as its target T3, postjunctional (neuropeptide Y Y1) receptor (Rattus norvegicus, UniProt P21555).
T3 construct: from tissue; host or cells: whole anaesthetised Wistar rat (vasculature)
T3 sequence (P21555 1-382): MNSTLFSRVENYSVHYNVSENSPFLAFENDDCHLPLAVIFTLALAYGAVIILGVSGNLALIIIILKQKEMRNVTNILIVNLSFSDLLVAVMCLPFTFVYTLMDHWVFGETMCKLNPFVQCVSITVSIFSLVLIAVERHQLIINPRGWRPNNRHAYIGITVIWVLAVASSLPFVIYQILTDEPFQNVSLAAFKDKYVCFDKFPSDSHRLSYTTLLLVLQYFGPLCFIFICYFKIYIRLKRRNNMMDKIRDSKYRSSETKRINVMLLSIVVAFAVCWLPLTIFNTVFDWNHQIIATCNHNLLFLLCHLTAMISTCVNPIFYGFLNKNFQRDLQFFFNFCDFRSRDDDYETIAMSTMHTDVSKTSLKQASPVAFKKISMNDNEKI
The assay can be described thus: Pressor action (arterial blood pressure) in anaesthetised rats (postjunctional activity). Type of assay: in vivo. To be noted: i.v.
Experimental: Experiments were carried out on adult rats (Wistar) of both sexes (250-350 g), anaesthetised with sodium pentobarbitone (Nembutal, Boehringer-Ingleheim; 60 mg/kg, i.p.). The trachea was cannulated and the animal artifically ventilated. The femoral vein was cannulated for administration of peptides and further doses of anaesthetic. The left femoral artery was cannulated to record arterial pressure. Both vagus nerves were cut. […] The frequency was chosen to increase pulse interval by approximately 100 ms, a submaximal effect on this variable. The electrocardiogram was measured using needle electrodes and monitored on one channel of an osciloscope. Pulse interval (the period between successive beats of the heart) was recorded beat-by-beat by triggering from ECG. Pulse interval and arterial pressure were recorded on the pen recorder. […]
As an indication of prejunctional activity two parameters were measured; the maximum percent inhibition of the increase in pulse interval evoked by stimulation of the vagus nerve following injection of peptide (Δ pulse interval, % inhibition) and the time to half recovery of this effect (T50). For pressor action, an indicator of postjunctional activity, two parameters were also measured; the peak pressor response following injection of peptide (Δ blood pressure) and the duration of the increase in blood pressure (Duration). […]

The target in assay [7] is T4, neuropeptide Y Y1 receptor (Homo sapiens, UniProt P25929).
T4 construct: host or cells: SK-N-MC human neuroblastoma cells (whole cells)
T4 sequence (P25929 1-384): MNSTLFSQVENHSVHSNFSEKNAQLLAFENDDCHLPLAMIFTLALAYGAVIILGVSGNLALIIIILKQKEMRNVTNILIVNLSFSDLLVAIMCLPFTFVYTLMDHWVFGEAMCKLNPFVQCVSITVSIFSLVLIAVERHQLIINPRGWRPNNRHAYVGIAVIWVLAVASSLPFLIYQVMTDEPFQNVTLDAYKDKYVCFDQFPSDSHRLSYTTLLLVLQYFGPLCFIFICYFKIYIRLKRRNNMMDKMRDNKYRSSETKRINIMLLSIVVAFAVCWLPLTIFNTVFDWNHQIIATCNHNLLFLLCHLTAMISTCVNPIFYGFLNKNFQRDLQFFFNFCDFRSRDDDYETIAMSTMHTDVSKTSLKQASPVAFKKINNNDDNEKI
The assay can be described thus: Competition with radiolabelled peptide YY for binding to SK-N-MC cells.
Text: as §1

Another assay deals with endogenous ATP receptor. Briefly: Calcium response to ATP in Y1 receptor-transfected CHO cells. Type of assay: cell-based, Chinese Hamster. To be noted: 1 μM ATP. Here is the method:
Cells were suspended in loading media (Modified RPMI, 10 mM Hepes, 1% newborn fetal calf serum) and incubated in a spinner flask at 37° C., for 2.5 hours at 1×10^6 cells/ml. Cells were then treated with […] Fura-2 AM for 30 minutes at 37° C., washed twice with loading media and resuspended at 5×10^6 cells/ml. Immediately before use in fluorescence spectroscopy, cells were recovered by centrifugation at 1000 rpm and resuspended at 1×10^6 cells/ml in a modified Krebs buffer (135 mM NaCl, 4.7 mM KCl; 1.2 /nM MgSO4, 1.2 mM KH2 PO4, 5 mM NaHCO3, 1 mM CaCl2, 2.8 mM glucose, and 10 mM Hepes, pH 7.4) containing 1 mM sulphinpyrazone. Fluorescence recordings were made on an Hitachi fluorescence spectrometer (F4010) at 340 nm (excitation) and 505 nm (emission) over 10 minutes with slit widths of 5 nm and a response time of 2 seconds. Intracellular calcium levels were quantitated using equations described (Grynkiewicz et al., 1985).

Regarding vasoactive intestinal polypeptide [VIP], in [1], the “effect on Rma, in words” value is “dose-dependant reductions of the Rma”; the “rank order potency on a molar basis (reduction of Rma)” value is “ACh>VIP>PHI”; the “vascular effect after pretreatment with adrenoceptor blockers and atropine” value (“vascular effect after pretreatment” below) is “remained intact”.
With peptide histidine isoleucine [PHI], in assay [1], the “effect on Rma, in words” value is on record as “dose-dependant reductions of the Rma”; the “rank order potency on a molar basis (reduction of Rma)” value is on record as “ACh>VIP>PHI”; the “vascular effect after pretreatment” value is listed as “remained intact”.
As to neuropeptide Y-(13-32), the “prejunctional activity in vivo, earlier study” value in [2] is “inactive in vivo”.
In the case of `CC(=O)OCC[N+](C)(C)C.[Cl-]` [ACh, acetylcholine chloride], in assay [1], the “effect on Rma, in words” value was “dose-dependant reductions of the Rma”; the “rank order potency on a molar basis (reduction of Rma)” value is recorded as “ACh>VIP>PHI”; the “vascular effect after pretreatment” value is “virtually abolished”.
As for `C[N+](C)(C)CC[N+]1(C)Cc2c(Cl)c(Cl)c(Cl)c(Cl)c2C1` [chlorisondamine], the “vasodilatation evoked by vidian nerve stimulation after ganglion blocker” value with dog nasal mucosa (2 mg kg^-1, i.v.) was “inhibition of vasodilatation”.
Consider “[Leu^31, Pro^34 ] neuropeptide Y [[Leu^31, Pro^34] NPY]”, for which the “duration of the blood pressure increase” value in assay [3] is listed as “more than 7 min”. In assay [3], the “reduction of blood flow in the internal maxillary artery (nasal mucosa blood flow)” value is around 20%. Also, the “increase in arterial blood pressure” value in assay [3] (after phentolamine, propranolol and atropine) was determined as 23±2.8 mmHg. The “parasympathetic vasodilatation after administration, in words” value with dog nasal mucosa (Y1 agonist 8 nmol kg^-1, Y2 agonist 20 nmol kg^-1) is recorded as “no influence on the parasympathetic nerve-evoked vasodilatation; also recorded: no influence on the subsequent parasympathetic vasodilatation”; with dog nasal mucosa (Y1 agonist 8 nmol kg^-1, Y2 agonist 20 nmol kg^-1, Pro^31 ] NPY), “not modified”.
For `NC[C@H](O)c1ccc(O)c(O)c1` [NA], in assay [1], the “effect on Rma, in words” value is on record as “dose-dependant increases in Rma”; the “vascular effect after pretreatment” value is “virtually abolished”.
“Ac-LRHYLNLLTRQRY-NH2 [N-acetyl [Leu^28, Leu^31] neuropeptide Y-(24-36)]”: the EC50 in [4] (read-out: EC50 for T50 (time to half recovery of vagal inhibition) (converted)) was 2.51 nM; in assay [4] (read-out: EC50 for Δ pulse interval (converted)), 3.16 nM. Besides, in assay [5], the IC50 was 3.9 ± 0.4 nM.
Consider “LRHYLNLLTRQRY-NH2 [[Leu^28, Leu^31] neuropeptide Y-(24-36)]”, for which, in [4] (Table 1 footnote, no EC50 calculated), the “duration of transient response (T50)” value is below 2 min. Moreover, the “inhibition of cardiac vagal action (prejunctional effect), in words” value in assay [4] is listed as “significant inhibitory or prejunctional actions but these effects are transient”; in [4] (listed as [Leu^27, Leu^31 ] neuropeptide Y-(24-36)) it was “significant inhibitory effects on cardiac vagal action”. Moreover, the “pressor effect (Δ blood pressure), in words” value in assay [6] is reported as “did not significantly increase blood pressure at any dose tested”. Moreover, the IC50 in assay [5] stood at 12.7 ± 1.2 nM. Further, in assay [7], the “binding to Y1 receptor on SK-N-MC cells, in words” value is “neither N-acetyl [Leu^28, Leu^31 ] neuropeptide Y-(24-36) or [Leu^28, Leu^31 ] neuropeptide Y-(24-36) shoed significant binding”.
With `Nc1ncnc2c1ncn2[C@@H]1O[C@H](COP(=O)(O)OP(=O)(O)OP(=O)(O)O)[C@@H](O)[C@H]1O` [ATP], in the assay with endogenous ATP receptor, the “calcium response to ATP after addition of N-acetyl [Leu28, Leu31] neuropeptide Y-(24-36)” value was 33.8 nM and the “calcium response to ATP before addition of N-acetyl [Leu28, Leu31] neuropeptide Y-(24-36)” value was 46.3 nM.

Source of the values: patent US5696093A (CRC for Biopharmaceutical Research Pty Limited, priority 1994, dated 1997).
